Assay results as given in patent US5474993A, “Lactam inhibitors of cholesterol esterase” (Sterling Winthrop, Inc., priority 1994, dated 1995).

Target: T1, pancreatic cholesterol esterase (PCEH) (Homo sapiens, UniProt P19835)
T1 sequence (P19835 21-753): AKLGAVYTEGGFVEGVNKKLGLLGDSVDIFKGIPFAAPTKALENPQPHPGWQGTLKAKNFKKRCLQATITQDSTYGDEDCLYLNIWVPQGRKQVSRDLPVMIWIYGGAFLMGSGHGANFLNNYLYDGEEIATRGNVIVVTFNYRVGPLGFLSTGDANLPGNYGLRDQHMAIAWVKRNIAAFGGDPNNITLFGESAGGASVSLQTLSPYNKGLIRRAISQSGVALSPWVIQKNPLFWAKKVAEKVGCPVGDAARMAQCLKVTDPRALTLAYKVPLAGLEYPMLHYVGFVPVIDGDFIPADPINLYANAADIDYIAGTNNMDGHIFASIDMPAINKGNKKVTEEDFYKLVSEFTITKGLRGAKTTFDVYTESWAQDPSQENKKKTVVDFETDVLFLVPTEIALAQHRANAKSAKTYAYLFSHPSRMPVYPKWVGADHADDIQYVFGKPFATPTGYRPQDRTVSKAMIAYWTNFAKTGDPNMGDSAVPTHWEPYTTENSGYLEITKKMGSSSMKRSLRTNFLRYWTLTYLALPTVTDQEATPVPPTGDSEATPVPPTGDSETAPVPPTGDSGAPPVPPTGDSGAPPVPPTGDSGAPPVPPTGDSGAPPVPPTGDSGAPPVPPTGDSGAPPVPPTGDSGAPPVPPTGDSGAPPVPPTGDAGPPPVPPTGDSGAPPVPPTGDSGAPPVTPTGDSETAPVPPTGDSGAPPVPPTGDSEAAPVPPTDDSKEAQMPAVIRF
Assay: KM estimation for PNPA substrate
Assay type: biochemical
Details: nonlinear fit to the rate-progress curve
Experimental: Purified pancreatic cholesterol esterase or ester hydrolase (PCH), shown by SDS-acrylamide and isoelectric focusing electrophoresis to be homogeneous,is used in a fresh solution of 90 mM (PNPA) in methanol.
First an initial screen is conducted as follows: to determine the effect of an inhibitor on the rate of enzyme catalyzed hydrolysis of PNPA, enzyme and inhibitor are first incubated at room temperature for ten minutes. Following incubation, enough PNPA substrate to give a final concentration of 0.225 mM is added. The rate of PNPA hydrolysis is monitored by observing an increase of absorption at 405 nm over the course of ten minutes. On average, the concentration of inhibitor is 1300-fold greater than that of the enzyme inhibitor concentrate. The maximum solubility of PNPA of approximately twice the value of Km, limited the accuracy the KM determination for the PNPA substrate. The estimated KM based on a nonlinear fit to the rate-progress curve is KM ~1 mM. With this estimate the substrate concentration used in the screen was approximately 0.25 KM.

estimated KM: ~ 1 mM
SMILES: CC(=O)Oc1ccc([N+](=O)[O-])cc1 [PNPA, p-nitrophenyl acetate]
